Data set [1] has as its system normal-weight male Sprague-Dawley rats. The data set can be described thus: Acute s.c. dosing, nocturnal food intake in normal-weight rats. The class given is in vivo. Particulars: linagliptin 0.1-0.5 mg/kg, GLP-1 0.2-0.4 mg/kg. As to the method: (§1) However, it is not known whether DPP-IV inhibition in conjunction with glucagon-like peptide (GLP)-1 administration would influence body weight.
(§2) Materials and methods: Normal-weight and DIO male Sprague-Dawley rats were used for acute and chronic dosing experiments, respectively. All rats were stratified to treatment groups according to individual body weight and whole-body fat mass. Linagliptin+GLP-1 combination treatment was evaluated in both acute and chronic treatment settings and compared with monotherapy and vehicle controls. […] For comparison, DIO rats were exposed to 28 days of liraglutide monotherapy. All drugs were administered twice daily subcutaneously (s.c.). […] In comparison, chronic liraglutide (0.2 mg/kg) treatment evoked a long-lasting hypophagic response with a weight loss of −10.8±0.5% and 12.2±0.6% at day 14 and 28, respectively.

The subject of data set [2] is DIO male Sprague-Dawley rats. In words: Chronic s.c. dosing, body weight and food intake in diet-induced obese (DIO) rats. The class given is in vivo. The conditions noted are these: DIO rat, s.c. twice daily. As to the method:
as §1, §2

Data set [3] deals with rats fed a high-fat diet (diet induced obesity). The data set can be described thus: Chronic treatment in non-diabetic model of diet induced obesity: body weight, total body fat, liver fat, intramyocellular fat (MRS). The class given is in vivo. The conditions noted are these: 6 weeks, linagliptin 10 mg/kg, sibutramine 5 mg/kg; for Body weight % baseli. / Intra-myocellular fat % baseli. / Liver fat % baseli. / Total body fat % baseli.: versus baseline; for Body weight % contr. / Intra-myocellular fat % contr. / Liver fat % contr. / Total body fat % contr.: versus control; for Intra-myocellular fat % baseli. / Liver fat % baseli. / Total body fat % baseli. / Intra-myocellular fat % contr. / Liver fat % contr. / Total body fat % contr.: MRS. Here is the method:
Magnetic resonance spectroscopy (MRS) analysis of total body fat, muscle fat, and liver fat is performed before treatment and at the end of the study.

The nature of data set [4]: 2 h postprandial blood glucose excursions in patients with type 2 diabetes. Particulars: Day 1; oral doses ≧2.5 mg. The data set is classed as in vivo, human.
Data set [5] has as its system non-obese-diabetic (NOD) mice. The data set can be described thus: Onset of diabetes and beta-cell mass in non-obese-diabetic (NOD) mice. The data set is classed as in vivo. Particulars: female NOD mice. The text has this:
Though reduced pancreatic T-cell migration and altered cytokine production is considered important players for the onset of insulinitis the exact mechanism and effects on the pancreatic cell pool is still incompletely understood.
Bi-weekly plasma samples are obtained to determine onset of diabetes (BG>11 mmol/l).

A further data set relates to RIP-B7.1 tg mice. The data set can be described thus: Diabetes development in RIP-B7.1 transgenic mice after proinsulin/insulin A-chain plasmid vaccination. The class given is in vivo. The text has this:
Dipeptidyl peptidase (DPP)-4 inhibitors block incretin degradation by DPP-4. […] As in humans, diabetes development in this model critically depends on activated CD8 T cells. Diabetes develops in RIP-B7.1 tg mice after a single intramuscular (i.m.) vaccination (vac) of proinsulin (PI) plasmid DNA.
Vac A: Diabetes is induced using a PI-encoding plasmid resulting in an aggressive insulitis. Vac B: vac with insulin A-chain encoding plasmid results in a delayed diabetes development compared to vac A. With vac A (n=20 tg mice), diabetes incidence is 80% 5 weeks after vac, whereas vac B (n=34) results in 79% incidence after 12 wks in placebotreated mice.

A short description of another data set: clinical. The conditions noted are these: human, urine, po.
Data set [6] is described as follows: Safety and tolerability in people with type 2 diabetes.
The nature of data set [7]: Pharmacokinetics of BI 1356 in patients with type 2 diabetes, multiple oral doses once daily for 12 days.
Where [8] appears, read: 2.5 mg oral once daily, steady state (Day 12), gMean (gCV).
[9] abbreviates: 10 mg oral once daily, steady state (Day 12), gMean (gCV).

Ends that are not written are not given here.

Take “GLP-1: native glucagon-like peptide (GLP)-1 (7-36) (HAEGTFTSDVSSYLEGQAAKEFIAWLVKGR; ends and bridges not checked; UniProt P01275 98-127, looked up)”: in data set [1], the “effect on nocturnal food intake” value is “rapid-onset suppression of food intake”. The “effect of 14 days of monotherapy” value in [2] was “no effect”.

`CC(C)CC(N(C)C)C1(c2ccc(Cl)cc2)CCC1` (stereo not drawn) [Sibutramine, reference compound]: in [3], the “Body weight % baseli.” value is “+1%”, the “Body weight % contr.” value was −12%, the “Intra-myocellular fat % baseli.” value was −34% and the “Liver fat % baseli.” value was −29%. Besides, in [3], the “Total body fat % baseli.” value is −0.4%, the “Intra-myocellular fat % contr.” value was −55%, the “Liver fat % contr.” value is −30% and the “Total body fat % contr.” value is on record as −12%. For the same molecule, in data set [3] (listed as sibutramine), the “Intra-myocellular fat % baseli.” value was −34%, the “Liver fat % contr.” value is −30% and the “Total body fat % contr.” value was −12%.

As for `CC#CCn1c(N2CCC[C@@H](N)C2)nc2c1c(=O)n(Cc1nc(C)c3ccccc3n1)c(=O)n2C` [linagliptin], the “decrease in 2 h postprandial blood glucose excursions” value in [4] is at least 80%. In data set [3], the “Body weight % baseli.” value is reported as “+12%”, the “Body weight % contr.” value is given as −3%, the “Intra-myocellular fat % baseli.” value is −24% and the “Liver fat % baseli.” value was −30%. Besides, in data set [3], the “Total body fat % baseli.” value is “+5%”, the “Intra-myocellular fat % contr.” value is reported as −36%, the “Liver fat % contr.” value is listed as −39% and the “Total body fat % contr.” value is recorded as −5%. Besides, in data set [3] (listed as Linagliptin), the “Body weight % contr.” value is −3%, the “Intra-myocellular fat % baseli.” value was −24%, the “Liver fat % contr.” value is −39% and the “Total body fat % contr.” value was −5%. Also, the “incidence of diabetes (BG>11 mmol/l) at the end of the study period” value in data set [5] (60 days, diet with 0.083 g linagliptin/kg chow (3-10 mg/kg p.o.), control 18 of 30) is reported as 9 out of 30. For the same molecule, in data set [5] (60 days, linagliptin in diet, vehicle 0.18±0.03), the “beta cell mass (insulin immunoreactivity, stereology)” value came to 0.48±0.09 mg. The molecule also showed a total islet mass in [5] (60 days, linagliptin in diet, vehicle 0.40±0.04) of 0.70 ± 0.09 mg. In [5] (60 days, linagliptin in diet, vehicle 1.06±0.15), this molecule came in with a peri-islet infiltrating lymphocytes of 0.79 ± 0.12 mg. In addition, the “active plasma GLP-1 at termination” value in data set [5] (versus control) is given as “higher”. In the data set on RIP-B7.1 tg mice (linagliptin 3 mg/kg/day oral), the “Serum levels of the regulatory cytokine IL-10” value was “significantly upregulated” and the “islet insulin content after diabetes onset” value is “partially preserved”. The “number of islet antigen-specific CD8 T cells expressing IFN-γ (FACS and ELISPOT)” value in the data set on RIP-B7.1 tg mice (linagliptin 3 mg/kg/day oral versus placebo) is “equal number”. Moreover, the diabetes incidence in the data set with RIP-B7.1 tg mice (vac A (PI-encoding plasmid), after wk 8 of follow-up, linagliptin 3 mg/kg/day oral, placebo 80% at 5 wks) is 80%. In addition, the diabetes incidence in the data set with RIP-B7.1 tg mice (vac B (insulin A-chain plasmid), during 14 wks follow up, linagliptin 3 mg/kg/day oral, control 92% wk 14) is on record as at most 62%. Moreover, the “effect on nocturnal food intake” value in [1] is reported as “no effect”. Further, the “effect of 14 days of monotherapy” value in data set [2] is reported as “no effect”. In addition, the CL renal in “clinical” is 14 to 70 mL/min. Also, in the data set “clinical” (5 mg), the CL renal was about 70 mL/min. The safety and tolerability result in data set [6] was “placebo-like safety and tolerability”. Also, the “feT,ss” value in data set [7] (1 mg oral once daily, steady state (Day 12), gMean (gCV)) is 3.34 (38.3) %. The fe0-24 in data set [7] (2.5 mg oral once daily for 12 days, gMean (gCV)) was 0.139 (51.2) %. For the same molecule, in data set [7] (setting [8]), the “AUCT,ss” value is 117 (16.3) nmol · h/L and the “feT,ss” value is 3.06 (45.1) %. In addition, the fe0-24 in [7] (5 mg oral once daily for 12 days, gMean (gCV)) is listed as 0.453 (125) %. The “feT,ss” value in [7] (5 mg oral once daily, steady state (Day 12), gMean (gCV)) was 6.27 (42.2) %. The fe0-24 in [7] (10 mg oral once daily for 12 days, gMean (gCV)) was 0.919 (115) %. Further, in data set [7] (setting [9]), the “T1/2,ss” value is 130 (11.7) h and the “feT,ss” value is 3.22 (34.2) %. In addition, the “form and path of excretion” value in [7] (human, in vivo) is recorded as “primarily excreted unchanged via the bile”. Moreover, the “mean accumulation ratio RA,AUC” value in data set [7] (oral doses above 1 mg once daily) is at most 1.4. Further, in data set [7] (therapeutic oral dose levels), the “fraction excreted via the kidney” value was < 7 % of the administered oral dose and the “main route of excretion” value is recorded as “mainly excreted via the liver”.

The values above are taken from patent US20130172244A1, “SUBCUTANEOUS THERAPEUTIC USE OF DPP-4 INHIBITOR” (priority 2011, published 2013).
